{"source": "patent US20230180809A1", "about": "“NUTRACEUTIC COMPOSITION COMPRISING LIMONENE AND A DRY EXTRACT OF COCOA FIBRE FOR THE TREATMENT OF OBESITY” (TARGETING GUT DISEASE SRL, priority 2020, published 2023)", "system": "obese mice", "assay": "slimming effect of limonene in obese mice", "assay_type": "in vivo", "settings": "obese mice after 12 weeks of high lipid diet, feed containing 0.5% of limonene ad libitum for 2 weeks", "description": "Animal feed having a concentration of 0.5% in limonene corresponding to a daily dose of 0.6 g/kg of weight in humans. After 12 weeks of high lipid diet that caused obesity, mice were administered ad libitum, animal feed containing 0.5% of limonene for 2 weeks."}
{"smiles": "C=C(C)[C@H]1CC=C(C)CC1", "note": "[limonene]", "values": [{"measurement": "accumulation of lipids in the cells", "value": "preventing the accumulation of lipids"}, {"measurement": "reduction of serum triglycerides", "value": "up to 47%"}, {"measurement": "size of both white and brown adipocytes", "value": "decreasing the size"}]}
